Results from paper PMC11579209, “Population pharmacokinetics and exposure–response relationships of maribavir in transplant recipients with cytomegalovirus infection” (Journal of Pharmacokinetics and Pharmacodynamics, 2024).
Read-outs that look alike come from different tables or passages of the source.

Experiments:
[1] = design: method as in PMID 18316526; conditions: concomitant ketoconazole; cited from earlier work
[2] = Individual predicted steady-state PK parameters (400 mg BID) derived from the final PopPK model; assay type: in vivo; conditions: for Ctrough.ss, geometric mean (%CV) / AUC / Cmax / half-life: 400 mg BID steady state; for AUC / Cmax / half-life: human, plasma, oral, 400 mg; for AUC: read-out: AUC0–τ, geometric mean (%CV); for Cmax: read-out: Cmax.ss, geometric mean (%CV); for half-life: read-out: Half-life, geometric mean (%CV) (converted)
Protocol: The final model was used to derive individual estimates of steady-state AUC over one dosing interval (AUC0–τ), Cmax.ss, and minimum maribavir plasma concentration (Ctrough.ss) for a 400 mg BID dosing regimen for all participants in the PopPK analysis. Individual estimates of Cmax.ss, Ctrough.ss, and AUC0–τ were obtained by prediction of the concentration–time profiles (concentrations predicted at 0, 1, 2, 3, 4, 6, 8 and 12 h) after a steady-state dose of 400 mg BID for respective individuals using their individual post hoc parameter values in the absence of strong CYP3A4 inducers or strong CYP3A4 inhibitors, and zero values for residual variability. The PK parameters AUC0–τ (linear up/log down trapezoidal rule), Cmax.ss, and Ctrough.ss were determined by non-compartmental methods.
The mean (percentage coefficient of variation [CV%]), geometric mean (GM) CV%, median, and percentiles for AUC0–τ, Cmax.ss, and Ctrough.ss were obtained overall and by health status (healthy individuals, all transplant recipients with CMV infection, and transplant recipients with refractory CMV infection in the phase 3 SOLSTICE study). For transplant patients with CMV infections, summary statistics were provided by covariates of interest including age (18 to < 65 years and ≥ 65 years; 18 to < 65 years, 65 to < 75 years, and 75 to < 85 years), sex, race, ethnicity, body mass index (BMI; underweight [< 18.5 kg/m^2], normal weight [18.5 to < 25 kg/m^2], overweight [25 to < 30 kg/m^2], obese [≥ 30 kg/m^2]), concurrent PPI, concurrent H2 inhibitors, transplant type, baseline plasma CMV DNA (low and intermediate/high), CMV category, hepatic impairment (none, Child-Pugh Class A, Child-Pugh Class B), presence of CMV mutations at baseline, and baseline use of antilymphocyte antibody. For the PPI and H2 inhibitor analyses, PK parameters were computed only for patients receiving the relevant concomitant medication for all their PK observations and for those who never received the relevant concomitant medication. For healthy individuals, summary statistics were provided by the following covariates of interest: age (≤ 65 years, > 65 years), sex, race, ethnicity, and BMI.

[3] = system: Cytochrome P450 (CYP) 3A4; design: method as in PMID 12654667, doi:10.1016/j.bbmt.2018.12.600; conditions: formation of VP44469; cited from earlier work
[4] = system: Cytochrome P450 (CYP) 1A2; design: method as in PMID 12654667, doi:10.1016/j.bbmt.2018.12.600; conditions: formation of VP44469; cited from earlier work
[5] = cited from earlier work
[6] = system: CMV; conditions: SOLSTICE, maribavir 400 mg BID vs IAT, cited from earlier work
[7] = design: species or system human; conditions: in vivo
Protocol: The exposure–response analyses for maribavir were based on data collected from transplant recipients with CMV infections that were refractory to treatment with ganciclovir, valganciclovir, foscarnet, or cidofovir in the phase 3 SOLSTICE study (ClinicalTrials.gov: NCT02931539). SOLSTICE was a multicenter, open-label, active-controlled study in which patients were randomized 2:1 to receive maribavir 400 mg BID or IAT for 8 weeks, with 12 weeks of follow-up. The primary endpoint was confirmed CMV clearance at the end of week 8, and the key secondary endpoint was achievement of CMV clearance and symptom control at the end of week 8, maintained through week 16. TE CMV mutation conferring resistance to maribavir was assessed as an exploratory endpoint. Full details of the SOLSTICE study have been published previously.
Posterior Bayes parameters of the final PopPK model were used to derive rich concentration–time profiles for maribavir. Actual dosing history and factors affecting the PK of maribavir (i.e., body weight and time-varying presence of strong CYP3A4 inhibitors or strong CYP3A4 inducers) were considered in the predictions.
Data set preparation, exploration, visualization of the data and exposure-response analyses were performed using R® (version 4.0.5 for efficacy and resistance analyses; version 4.0.2 for safety analysis) with comprehensive R® archive network (CRAN) and Certara Strategic Consulting (CSC) package. Firth correction on logistic regression was done based on library “logistf”. Logistic regressions with log-linear exposure effect or Emax exposure effect were performed using NONMEM Version VII (version 7.4).
Descriptive statistics were derived for TEAEs, TE serious AEs (SAEs), and TEAEs of special interest during the 8-week treatment phase. Based on the descriptive statistics results, key TEAEs were selected for a formal exposure–response analysis, and exposure parameters of maribavir (AUCday, Cmax.day, Cavg, AUCss, and Cmax.ss) derived from the final PopPK models were merged with retained TEAE. […]

[8] = system: plasma proteins; design: method as in earlier work; conditions: cited from earlier work
[9] = all transplant patients with CMV infection, n = 485
[10] = refractory CMV infection (SOLSTICE only), n = 253
[11] = transplant patients with CMV, 400 mg BID
[12] = transplant patients with CMV, n = 5 in older group

**Q.** Which “Increase in maribavir AUC0-∞” value [1] does the source give for `CC(C)Nc1nc2cc(Cl)c(Cl)cc2n1[C@H]1O[C@@H](CO)[C@H](O)[C@@H]1O` [maribavir] here?
**A.** 53%

**Q.** What about the “Increase in maribavir Cmax” value [1] of the same compound?
**A.** 10%

**Q.** And the “Ctrough.ss, geometric mean (%CV)” value ([2]; all participants, n = 667)?
**A.** 4.33 (89.7) μg/mL

**Q.** And the “Ctrough.ss, geometric mean (%CV)” value [2, 9]?
**A.** 4.90 (89.7) µg/mL

**Q.** And the “Ctrough.ss, geometric mean (%CV)” value ([2]; healthy volunteers, n = 133)?
**A.** 2.89 (71.7) μg/mL

**Q.** And the “Ctrough.ss, geometric mean (%CV)” value [2, 10]?
**A.** 5.13 (93.0) µg/mL

**Q.** And the “GM AUC0-τ higher in transplant patients with CMV infection than in healthy volunteers” value ([2]; 400 mg BID, steady state)?
**A.** 27%

**Q.** What about the “GM Cmax.ss higher in transplant patients with CMV infection than in healthy volunteers” value ([2]; 400 mg BID, steady state) of the same compound?
**A.** 5%

**Q.** And the AUC ([2]; all participants, n = 667)?
**A.** 121 µg·h/mL

**Q.** What about the Cmax ([2]; all participants, n = 667) of the same compound?
**A.** 17200 ng/mL

**Q.** And the half-life ([2]; all participants, n = 667)?
**A.** 654 min

**Q.** And the AUC [2, 9]?
**A.** 128 µg·h/mL

**Q.** And the Cmax [2, 9]?
**A.** 17200 ng/mL

**Q.** And the AUC ([2]; healthy volunteers, n = 133)?
**A.** 101 µg·h/mL

**Q.** And the Cmax ([2]; healthy volunteers, n = 133)?
**A.** 16400 ng/mL

**Q.** And the half-life ([2]; healthy volunteers, n = 133)?
**A.** 542 min

**Q.** What about the Cmax [2, 10] of the same compound?
**A.** 16900 ng/mL

**Q.** What about the AUC ([2]; transplant patients with refractory CMV infection (SOLSTICE only), n = 253) of the same compound?
**A.** 129 µg·h/mL

**Q.** What about the “GM AUC0-τ higher in underweight (BMI < 18.5 kg/m^2) than normal-weight patients” value [2, 11] of the same compound?
**A.** 24%

**Q.** And the “GM AUC0τ higher in female than male patients” value [2, 11]?
**A.** 19%

**Q.** What about the “GM Cmax.ss higher in female than male patients” value [2, 11] of the same compound?
**A.** 25%

**Q.** And the “GM Cmax.ss higher in underweight (BMI < 18.5 kg/m^2) than normal-weight patients” value [2, 11]?
**A.** 31%

**Q.** What about the “Maribavir exposure between patients with no, Child-Pugh class A, or Child-Pugh class B hepatic impairment” value [2, 11] of the same compound?
**A.** similar

**Q.** And the “Maribavir exposure with or without PPI” value [2, 11]?
**A.** similar

**Q.** And the “Maribavir exposure with or without histamine H2 blockers” value [2, 11]?
**A.** similar

**Q.** And the “AUC0-τ higher in patients aged 75 to < 85 years vs 18 to < 65 years” value [2, 12]?
**A.** 54%

**Q.** What about the “Cmax.ss higher in patients aged 75 to < 85 years vs 18 to < 65 years” value [2, 12] of the same compound?
**A.** 38%

**Q.** And the “Share of CYP-mediated metabolism by CYP3A4” value [3]?
**A.** 70–85%

**Q.** And the “Share of CYP-mediated metabolism by CYP1A2” value [4]?
**A.** 15–30%

**Q.** What about the “Time to steady-state exposure” value ([5]; 400 mg BID, transplant recipients with CMV infection) of the same compound?
**A.** ≤ 2 days

**Q.** And the “PK in patients with mild or moderate hepatic impairment” value [5]?
**A.** unaffected

**Q.** What about the “Renal excretion as share of total clearance of unchanged drug” value [5] of the same compound?
**A.** < 2%

**Q.** And the “Systemic exposure in healthy Japanese individuals compared with White individuals” value [5]?
**A.** higher

**Q.** And the Mean half-life ([5]; healthy volunteers)?
**A.** 3.0 to 4.8 h

**Q.** And the “Median time to maximum plasma concentration (Tmax)” value ([5]; oral administration)?
**A.** 1 to 3 h

**Q.** What about the “Dose proportionality of PK” value ([5]; single doses of up to 1600 mg and multiple doses up to 2400 mg per day) of the same compound?
**A.** dose-proportional

**Q.** And the Mean half-life ([5]; transplant recipients)?
**A.** 4.3 h

**Q.** And the “Proportion of patients achieving key secondary endpoint (CMV viremia clearance and symptom control at end of week 8, maintained through week 16)” value [6]?
**A.** 18.7%

**Q.** What about the “Proportion of patients achieving primary endpoint (confirmed CMV viremia clearance at week 8)” value ([6]; transplant recipients with refractory CMV) of the same compound?
**A.** 55.7%

**Q.** And the “Relationship between probability of TE SAE and maribavir AUCday, AUCss, Cmax.ss, and Cavg” value ([7]; human)?
**A.** Statistically significant positive relationships

**Q.** What about the “Relationship between probability of fatigue and maribavir exposure PK metrics” value [7] of the same compound?
**A.** Statistically significant positive relationships

**Q.** What about the “Relationship between probability of taste disturbance and Cavg of maribavir” value [7] of the same compound?
**A.** statistically significant negative relationship

**Q.** What about the “Bound to plasma proteins” value [8] of the same compound?
**A.** approximately 98%
